According to patent US10675293B2, “Nucleoside agents for the reduction of the deleterious activity of extended nucleotide repeat containing genes” (The Board of Trustees of the Leland Stanford Junior …, priority 2015, dated 2020):

How the values were obtained:
[1] = tested on: Q20-GFP; test: PolyQ-tagged GFP reporter in HEK293 cells, Q20-GFP; assay type: cell-based; details: higher concentration, 48 hours after transfection
Description: (§1) CAG repeats and part of the flanking region in the first exon of Htt gene were PCR amplified from cDNA of HD patient lymphoblastoid cells containing one normal and one mutant allele (Q22 and Q44) with additional flanking restriction enzyme sites NheI. The PCR fragments were than in-frame fused with pEGFP-C1 at the end of the EGFP gene to express polyQ tagged GFP.
(§2) Normal length of poly Q (Q20) and pathogenic length of poly Q(Q44) were in-frame fused at the amino-terminus of eGFPC1 protein to generate Q44- and Q20-GFP (FIG. 8A). The plasmid carrying the polyQ tagged GFP was transfected into HEK 293 cells with greater than 90% transfection efficiency.
(§3) HEK293 cells were transiently transfected with the above mentioned GFP constructs. Five hours after transfection, cells were split among the wells of a 24-well plate and various concentrations of HD101 were added into the wells. 48 hours after transfection, cells were washed with PBS, fixed with 4% paraformaldehyde, and then nuclear stained with DAPI. The cell images were taken by fluorescent microscope (FIG. 9A) and the GFP and DAPI intensity of each field were quantitated using software Image Pro 6.2.

[2] = tested on: mutant Htt gene; test: RT-PCR of Htt mRNA in Hdh Q111/Q111 striatal cells; assay type: cell-based, mouse; details: compared to mock control
Method: Tet-on HeLa cells (Clontech Laboratories), and stable line 2-PN4 and 21-VS were cultured in DMEM (Gibco) supplemented with 10% Tet-off fetal bovine serum (Gibco) at 37° C. with 5% CO2. Hdh Q7/Q7 (mouse), Hdh Q111/Q111 (mouse) were cultured in DMEM (HyClone) supplemented with 10% fetal bovine serum at 33° C. with 5% C02.
Total RNA was extracted from murine neuronal cells using TRI Reagent (Sigma). For cDNA conversion, 2 μg of total RNA was mixed with 5 μM random primer, 5 μM SnRNA U6 rt-PCR primer and 500 μM dNTPs, incubated at 65° C. for 5 min and then chilled on ice. After addition of First-Strand Buffer, DTT (Cf=10 mM) and 1 μl reverse transcriptase (Invitrogen), the reaction was carried out at 42° C. for 1 hr. Equal volumes of cDNA products were PCR amplified and resolved on 2.5% agarose gels to determine the abundance of Htt transcripts after normalization with U6 or 18S ribosomal RNA.

[3] = tested on: eGFPC1; test: GFP reporter in HEK293 cells, eGFPC1 without polyQ; assay type: cell-based; details: higher concentration, 48 hours after transfection
Method: as §3

[4] = tested on: Q44-GFP; test: PolyQ-tagged GFP reporter in HEK293 cells, Q44-GFP; assay type: cell-based; details: 48 hours after transfection
Description: as §1, §2, §3

SMILES: O=c1cnn([C@@H]2O[C@H](CO)[C@@H](O)[C@H]2O)c(=O)[nH]1 [HD101, 6-Azauridine]
- Q20-GFP expression (GFP intensity normalized with DAPI) [1]: down regulating both Q20 and Q44-GFP significantly
- Htt mRNA transcribed from mutant allele [2]: down-regulates the expression of mutant Htt gene
- eGFPC1 expression (GFP intensity normalized with DAPI) [3]: minimum effect
- Q44-GFP expression (GFP intensity normalized with DAPI) ([4]; higher concentration): down regulating both Q20 and Q44-GFP significantly
- Q44-GFP expression (GFP intensity normalized with DAPI) ([4]; low concentration): down regulates
